Laboratory results from article PMC10584170, “Machine learning-based phenotypic imaging to characterise the targetable biology of Plasmodium falciparum male gametocytes for the development of transmission-blocking antimalarials” (PLOS Pathogens, 2023).

How the values were obtained:
HepG2 cells = assay: HepG2 cytotoxicity counter-screen; conditions: cytotoxic activity against HepG2 cells
[1] = test system: P. falciparum male gametocytes; assay: P. falciparum Dual Gamete Formation Assay (PfDGFA), male readout (exflagellation); assay type: cell-based, Plasmodium falciparum NF54; conditions: for Selectivity Ratio M: HepG2 Tox50 versus male IC50; for Average inhibition male (%): average of replicates; for % inhibition male (individual replicates) R1: replicate R1; for % inhibition male (individual replicates) R3: replicate R3; for % inhibition male (individual replicates) R4: replicate R4; for IC50: PfDGFA, 24 h incubation with gametocytes before induction, exflagellation readout, read-out: Male IC50; for HitlevelM: number of replicates with >50% inhibition in the male readout
How it was run: (§1)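 Day-14 NF54 gametocytes were incubated with compound for 24 h at 37°C under 1% O2/3% CO2/96% N2. Gametogenesis was triggered with ookinete medium (0.1 μM xanthurenic acid) plus Cy3-anti-Pfs25, and exflagellation was imaged by brightfield after cooling to 4°C then 28°C. Females were imaged by Pfs25 fluorescence 24 h later at 28°C.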

[2] = test system: P. falciparum female gametocytes; assay: P. falciparum Dual Gamete Formation Assay (PfDGFA), female readout (Pfs25-positive female gametes); assay type: cell-based, Plasmodium falciparum NF54; conditions: for Selectivity ratio F: HepG2 Tox50 versus female IC50; for Average inhibition female (%): average of replicates; for % inhibition female (individual replicates) R1: replicate R1; for % inhibition female (individual replicates) R3: replicate R3; for % inhibition female (individual replicates) R4: replicate R4; for IC50: PfDGFA, 24 h incubation with gametocytes before induction, female gamete readout, read-out: Female IC50; for HitlevelF: number of replicates with >50% inhibition in the female readout
How it was run: as §1

[3] = PfDGFA at 2µM, 24h preincubation with gametocytes
[4] = 2µM, 24h preincubation with gametocytes
[5] = 2µM, 24h preincubation with gametocytes prior to induction of gametogenesis

Row | SMILES | Tox50 (HepG2 cells) [µM] | Selectivity Ratio M [1] | Average inhibition male (%) [1, 3] [%] | % inhibition male (individual replicates) R1 [1, 3] [%] | % inhibition male (individual replicates) R3 [1, 3] [%] | % inhibition male (individual replicates) R4 [1, 3] [%] | IC50 [1] [nM] | HitlevelM ([1]; 2µM) | Selectivity ratio F [2] | Average inhibition female (%) [2, 3] [%] | % inhibition female (individual replicates) R1 [2, 3] [%] | % inhibition female (individual replicates) R3 [2, 3] [%] | % inhibition female (individual replicates) R4 [2, 3] [%] | IC50 [2] [nM] | HitlevelF ([2]; 2µM) | Average inhibition male (%) [1, 4] [%] | % inhibition male (individual replicates) R1 [1, 4] [%] | % inhibition male (individual replicates) R3 [1, 4] [%] | % inhibition male (individual replicates) R4 [1, 4] [%] | Average inhibition female (%) [2, 4] [%] | also measured
1 | CCOc1cc(CNCCCCCCNCc2cc(OCC)c(OCC)c3ccccc23)c2ccccc2c1OCC.CS(=O)(=O)O [TCMDC-137939] | 2.02 | 1.34 | 69.9 | 72.9 | 51.6 | 76.9 | 1510 | 4 | 0.94 | 45.9 | 31.3 | 12.7 | 67.3 | 2160 | 2 | – | – | – | – | – | –
2 | COc1cc2ccccc2cc1CCNCCCCNCCc1cc2ccccc2cc1OC.CS(=O)(=O)O [TCMDC-137944] | 3.94 | 3.14 | – | – | – | – | 1260 | – | 1.14 | – | – | – | – | 3470 | – | 96.6 | 97.3 | 93.0 | 97.4 | 77.7 | % inhibition female (individual replicates) R1 [2, 4]: 77.0%; % inhibition female (individual replicates) R3 [2, 4]: 80.9%; % inhibition female (individual replicates) R4 [2, 4]: 77.1%
3 | CCCOc1ccc(CCNCCCCNCCc2ccc(OCCC)c3ccccc23)c2ccccc12.CS(=O)(=O)O [TCMDC-137952] | 2.96 | 3.16 | – | – | – | – | 940 | – | 2.17 | – | – | – | – | 1370 | – | 93.9 | 96.8 | 100.0 | 100.7 | 89.4 | % inhibition female (individual replicates) R1 [2, 4]: 87.3%; % inhibition female (individual replicates) R3 [2, 4]: 99.5%; % inhibition female (individual replicates) R4 [2, 4]: 93.9%
4 | COc1ccc2c(OC)c(CNCCCCCCNCc3ccc4cc(OC)ccc4c3OC)ccc2c1.CS(=O)(=O)O [TCMDC-137953] | 3.73 | 2 | 70.9 | 72.9 | 42.7 | 88.9 | 1870 | 3 | 2.26 | 35.6 | 27.7 | 6.7 | 49.3 | 1650 | 1 | – | – | – | – | – | –
5 | COc1ccc(CCNCCCCNCCc2ccc(OC)c3ccccc23)c2ccccc12.CS(=O)(=O)O [TCMDC-137961] | 3.73 | 3.28 | – | – | – | – | 1140 | – | 1.85 | – | – | – | – | 2020 | – | 90.0 | 98.7 | 95.1 | 92.4 | 83.6 | % inhibition female (individual replicates) R1 [2, 4]: 91.7%; % inhibition female (individual replicates) R3 [2, 4]: 93.4%; % inhibition female (individual replicates) R4 [2, 4]: 91.7%
6 | CC(C)Oc1ccc2ccccc2c1CNCCCCCCNCc1c(OC(C)C)ccc2ccccc12.CS(=O)(=O)O [TCMDC-137965] | 3.22 | 1.91 | 73.8 | 86.0 | 74.0 | 91.3 | 1690 | 3 | 1.26 | 48.8 | 46.4 | 51.5 | 48.5 | 2560 | 1 | – | – | – | – | – | –
7 | CCCOc1ccc2ccccc2c1CNCCCCCCNCc1c(OCCC)ccc2ccccc12.CS(=O)(=O)O [TCMDC-137966] | 3.43 | 1.77 | 79.0 | 79.2 | 56.4 | 86.2 | 1940 | 4 | 1.2 | 25.2 | 28.6 | 7.7 | 20.1 | 2860 | 0 | – | – | – | – | – | –
8 | COc1ccccc1-c1nc2c(ccc3nc(N)nc(N)c32)[nH]1 [TCMDC-137976] | 2.07 | 1.2 | 63.5 | 72.4 | 76.7 | 81.8 | 1720 | 3 | 0.68 | 41.0 | 50.1 | 49.2 | 39.4 | 3030 | 1 | – | – | – | – | – | –
9 | CCOCn1c(-c2ccccc2)cc2c3c(N)nc(N)nc3ccc21 [TCMDC-137979] | 1.17 | 0.71 | – | – | – | – | 1660 | – | 1.17 | – | – | – | – | 1000 | – | – | – | – | – | – | Average inhibition male (%) [1, 5]: 42.1%; % inhibition male (individual replicates) R1 [1, 5]: 55.5%; % inhibition male (individual replicates) R3 [1, 5]: 46.9%; % inhibition male (individual replicates) R4 [1, 5]: 49.0%; HitlevelM ([1]; 2µM, 24h preincubation): 1; Average inhibition female (%) [2, 5]: 82.0%; % inhibition female (individual replicates) R1 [2, 5]: 76.5%; % inhibition female (individual replicates) R3 [2, 5]: 82.3%; % inhibition female (individual replicates) R4 [2, 5]: 83.9%; HitlevelF ([2]; 2µM, 24h preincubation): 4
10 | CCOc1cc(OCC)c2ccccc2c1CNCCCCCCNCc1c(OCC)cc(OCC)c2ccccc12.CS(=O)(=O)O [TCMDC-137982] | 2.84 | 2.69 | – | – | – | – | 1060 | – | 1.67 | – | – | – | – | 1700 | – | 97.2 | 95.9 | 96.2 | 100.2 | 82.9 | % inhibition female (individual replicates) R1 [2, 4]: 76.1%; % inhibition female (individual replicates) R3 [2, 4]: 92.8%; % inhibition female (individual replicates) R4 [2, 4]: 83.8%
